# Target: T1, wild-type AR (Homo sapiens, UniProt P10275)
# T1 sequence (P10275 1-920): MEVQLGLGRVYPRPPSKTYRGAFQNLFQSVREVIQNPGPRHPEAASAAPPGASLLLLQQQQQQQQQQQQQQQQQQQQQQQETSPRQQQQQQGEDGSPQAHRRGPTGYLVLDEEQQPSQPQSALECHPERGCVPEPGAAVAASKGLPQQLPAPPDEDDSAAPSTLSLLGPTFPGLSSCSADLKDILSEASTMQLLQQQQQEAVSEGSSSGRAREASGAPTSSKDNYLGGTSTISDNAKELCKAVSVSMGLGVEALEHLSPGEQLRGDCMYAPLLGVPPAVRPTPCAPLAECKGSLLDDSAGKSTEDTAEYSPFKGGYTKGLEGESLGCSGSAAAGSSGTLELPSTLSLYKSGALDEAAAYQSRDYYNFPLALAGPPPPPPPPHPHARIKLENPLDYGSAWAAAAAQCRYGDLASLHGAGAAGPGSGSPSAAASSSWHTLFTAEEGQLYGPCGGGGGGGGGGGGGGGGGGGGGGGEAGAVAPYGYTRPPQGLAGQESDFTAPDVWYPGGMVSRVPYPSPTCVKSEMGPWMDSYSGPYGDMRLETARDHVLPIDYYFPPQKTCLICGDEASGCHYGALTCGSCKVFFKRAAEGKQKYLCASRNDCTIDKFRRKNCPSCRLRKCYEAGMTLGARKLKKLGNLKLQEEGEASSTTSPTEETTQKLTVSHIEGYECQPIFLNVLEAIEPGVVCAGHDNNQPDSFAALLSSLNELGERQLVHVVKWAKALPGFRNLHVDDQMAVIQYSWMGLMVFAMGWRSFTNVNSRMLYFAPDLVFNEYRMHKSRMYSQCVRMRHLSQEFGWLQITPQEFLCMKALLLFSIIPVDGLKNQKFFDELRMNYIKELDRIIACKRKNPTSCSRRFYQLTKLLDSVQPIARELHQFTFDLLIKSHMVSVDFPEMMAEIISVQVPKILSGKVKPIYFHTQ
# Assay: Competitive inhibition of [3H]R1881 binding, wild-type AR
compound,measurement,setting,value
C[C@]12CC[C@H](O)CC1=CC[C@@H]1[C@@H]2CC[C@]2(C)C(c3cccnc3)=CC[C@@H]12 [Abiraterone],binding to the AR,"competitive binding, up to 10 μM",did not bind
same,inhibition at 10 µM,"read-out: wild-type (LAPC4/PC3-AR), inhibition of [3H]R1881 binding as symbol",< 20%
